The source of these data is publication PMC6089211, “Expression and purification of human diacylglycerol kinase α from baculovirus-infected insect cells for structural studies” (PeerJ, 2018).

The target of the experiment is T1, diacylglycerol kinase α (DGKα) (Homo sapiens, UniProt P23743).
T1 construct: gene DGKA; full-length DGKα (aa 1–735), N-terminal His×6 tag, Sf9-expressed
Kind of experiment: Michaelis–Menten kinetics, mixed micelle ADP-Glo assay (Km). Type of experiment: biochemical. In general terms: ADP-Glo turns the ADP formed in a reaction into a luminescent signal.

T1 sequence (P23743 whole entry, the tested form may be a part): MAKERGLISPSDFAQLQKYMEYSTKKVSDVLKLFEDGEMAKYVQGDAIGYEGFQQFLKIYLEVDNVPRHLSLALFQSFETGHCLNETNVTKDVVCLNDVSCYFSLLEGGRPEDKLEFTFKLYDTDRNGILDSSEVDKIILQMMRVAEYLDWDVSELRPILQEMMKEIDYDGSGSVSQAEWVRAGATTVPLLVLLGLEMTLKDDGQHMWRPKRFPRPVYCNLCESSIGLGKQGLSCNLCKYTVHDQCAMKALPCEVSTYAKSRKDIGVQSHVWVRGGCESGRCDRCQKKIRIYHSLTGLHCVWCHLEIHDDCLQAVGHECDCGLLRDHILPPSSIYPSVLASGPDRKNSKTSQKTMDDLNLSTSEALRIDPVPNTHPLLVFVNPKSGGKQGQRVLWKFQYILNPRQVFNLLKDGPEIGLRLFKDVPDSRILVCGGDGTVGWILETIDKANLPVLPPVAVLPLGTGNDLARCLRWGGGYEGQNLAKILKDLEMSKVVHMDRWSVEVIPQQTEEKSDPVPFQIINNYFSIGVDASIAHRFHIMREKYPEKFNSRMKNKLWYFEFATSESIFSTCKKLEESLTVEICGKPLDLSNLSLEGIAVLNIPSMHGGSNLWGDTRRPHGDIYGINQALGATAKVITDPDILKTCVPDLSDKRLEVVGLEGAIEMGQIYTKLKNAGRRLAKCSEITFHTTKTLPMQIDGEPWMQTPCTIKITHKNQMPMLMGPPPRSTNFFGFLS

Turning to `CCCCCCCC/C=C\CCCCCCCC(=O)OC[C@H](CO)OC(=O)CCCCCCC/C=C\CCCCCCCC` [1,2-dioleolyl-sn-glycerol], the Km came out at 1.06 ± 0.21 mol%.
